Conditions: in n-octanol

solubility (mole fraction) (293.15 K)	solubility (mole fraction) (298.15 K)	solubility (mole fraction) (303.15 K)	solubility (mole fraction) (308.15 K)	solubility (mole fraction) (313.15 K)	solubility (mole fraction) (318.15 K)	solubility (mole fraction) (323.15 K)	solubility (mole fraction) (328.15 K)	solubility (mole fraction) (333.15 K)	Compound
5.17e-05	6.62e-05	8.54e-05	0.000108	0.00014	0.000177	0.000224	0.000284	0.000352	CCn1cc(C(=O)O)c(=O)c2cc(F)c(N3CCNCC3)cc21
9.14e-07	1.2e-06	1.57e-06	2.03e-06	2.6e-06	3.25e-06	4.05e-06	4.97e-06	6.02e-06	CCn1cc(C(=O)O)c(=O)c2cnc(N3CCNCC3)nc21
2.17e-06	2.76e-06	3.55e-06	4.58e-06	5.88e-06	7.63e-06	9.91e-06	1.3e-05	1.68e-05	CCn1cc(C(=O)O)c(=O)c2cc(F)c(N3CCNC(C)C3)c(F)c21 (configuration not stated)

From BigSolDB 2.1
